According to publication PMC5708805, “Novel molecular imaging ligands targeting matrix metalloproteinases 2 and 9 for imaging of unstable atherosclerotic plaques” (PLoS ONE, 2017):

Key:
MMP1 = biological target: T1, MMP1 (Homo sapiens, UniProt P03956); assay: In vitro fluorometric MMP inhibition assay (SensoLyte 520 MMP-1); assay type: biochemical; settings: mean ± SD of three independent experiments in duplicate
T1 construct: purchased AnaSpec, San Jose, USA
T1 sequence (P03956 100-469): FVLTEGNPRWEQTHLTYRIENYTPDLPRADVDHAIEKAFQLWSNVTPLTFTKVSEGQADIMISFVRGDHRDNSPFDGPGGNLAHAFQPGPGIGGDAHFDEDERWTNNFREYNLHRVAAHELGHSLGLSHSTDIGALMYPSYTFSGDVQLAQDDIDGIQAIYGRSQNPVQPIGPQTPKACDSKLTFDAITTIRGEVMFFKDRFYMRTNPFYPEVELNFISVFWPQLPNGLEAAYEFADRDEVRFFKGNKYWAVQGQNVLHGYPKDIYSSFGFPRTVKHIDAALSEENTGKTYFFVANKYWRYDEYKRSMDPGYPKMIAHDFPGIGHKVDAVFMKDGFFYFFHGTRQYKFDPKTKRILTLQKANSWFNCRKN
Method: (§1) The inhibitory potency and selective binding of MMP-ligands was investigated by examining their capacity to block MMP1, MMP2 and MMP9 activity, using in vitro fluorometric assays (SensoLyte^TM 520 MMP-1, SensoLyte^TM 520 MMP-2, SensoLyte^TM 520 MMP-9; AnaSpec, San Jose, USA). Assay buffer was warmed to 37°C and used to dilute the reference inhibitor N-isobutyl-N-(4-methoxyphenylsulfonyl)glycyl hydoxamic acid (NNGH 1:100), calibration standard (1:50), substrate and enzyme (1:60). Components were loaded into a 96-well plate. MMP ligands 10a-d were also aliquoted to the respective 96-well plate at varying concentrations (10pM, 100pM, 1nM, 10nM, 100nM, 1μM, 10 μM and 100 μM), followed by incubation at 37°C for 30 minutes. Reactions were initiated by addition of the substrate to the respective wells, after which fluorescence generated was measured using a microplate reader (Synergy HT Multi-detection Microplate Reader, BioTek, […]) continuously for 30 minutes at 60 second intervals. Data analysis was conducted using Sigma Plot and Microsoft Excel.

MMP9 = biological target: T2, MMP9 (Homo sapiens, UniProt P14780); assay: In vitro fluorometric MMP inhibition assay (SensoLyte 520 MMP-9); assay type: biochemical; settings: for IC50: mean ± SD of three independent experiments in duplicate; for Selectivity MMP1/MMP9: ratio of IC50 values, MMP1 IC50 divided by MMP9 IC50
T2 construct: purchased AnaSpec, San Jose, USA
T2 sequence (P14780 94-707, species assumed): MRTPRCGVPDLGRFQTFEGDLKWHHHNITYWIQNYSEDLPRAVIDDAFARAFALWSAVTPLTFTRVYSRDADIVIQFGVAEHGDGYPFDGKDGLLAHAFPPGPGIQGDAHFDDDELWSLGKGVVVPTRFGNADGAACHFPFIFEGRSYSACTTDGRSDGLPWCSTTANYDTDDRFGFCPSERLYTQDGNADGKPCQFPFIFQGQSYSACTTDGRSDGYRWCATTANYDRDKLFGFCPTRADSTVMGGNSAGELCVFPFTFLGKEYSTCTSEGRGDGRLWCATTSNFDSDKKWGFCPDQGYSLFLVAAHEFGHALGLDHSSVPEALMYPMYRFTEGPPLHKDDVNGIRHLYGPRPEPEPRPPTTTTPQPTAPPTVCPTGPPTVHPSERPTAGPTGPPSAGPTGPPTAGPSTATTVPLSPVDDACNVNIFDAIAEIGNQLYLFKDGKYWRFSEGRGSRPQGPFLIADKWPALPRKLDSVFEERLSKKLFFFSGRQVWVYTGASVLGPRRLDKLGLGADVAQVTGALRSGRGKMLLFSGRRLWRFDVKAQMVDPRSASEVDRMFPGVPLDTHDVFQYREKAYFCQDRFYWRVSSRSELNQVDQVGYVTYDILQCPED
Method: as §1

MMP2 = biological target: T3, MMP2 (Homo sapiens, UniProt P08253); assay: In vitro fluorometric MMP inhibition assay (SensoLyte 520 MMP-2); assay type: biochemical; settings: for IC50: mean ± SD of three independent experiments in duplicate; for Selectivity MMP1/MMP2: ratio of IC50 values, MMP1 IC50 divided by MMP2 IC50
T3 construct: purchased AnaSpec, San Jose, USA
T3 sequence (P08253 110-660): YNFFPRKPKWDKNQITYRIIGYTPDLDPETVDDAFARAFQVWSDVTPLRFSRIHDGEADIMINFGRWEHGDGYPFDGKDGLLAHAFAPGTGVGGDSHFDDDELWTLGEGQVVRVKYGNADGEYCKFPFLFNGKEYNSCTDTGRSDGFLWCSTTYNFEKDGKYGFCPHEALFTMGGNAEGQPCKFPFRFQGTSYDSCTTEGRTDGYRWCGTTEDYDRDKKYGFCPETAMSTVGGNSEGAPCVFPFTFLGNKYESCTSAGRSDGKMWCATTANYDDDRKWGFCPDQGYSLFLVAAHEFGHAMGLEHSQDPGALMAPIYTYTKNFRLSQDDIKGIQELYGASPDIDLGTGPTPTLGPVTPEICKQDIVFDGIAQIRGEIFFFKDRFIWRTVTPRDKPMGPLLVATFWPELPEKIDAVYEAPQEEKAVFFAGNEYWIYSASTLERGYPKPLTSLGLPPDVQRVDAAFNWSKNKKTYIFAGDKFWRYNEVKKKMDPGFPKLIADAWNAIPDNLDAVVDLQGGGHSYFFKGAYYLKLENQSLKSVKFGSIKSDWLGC
Method: as §1

[1] = system: atherosclerotic lesions containing MMP2 and MMP9; assay: In vivo binding to atherosclerotic plaques (ex vivo storage phosphor imaging of aortic arch, MMP2/9 immunohistochemistry); design: species or system ApoE-/- mice; settings: 40 MBq i.v.
Method: To investigate selective binding of [^123I]10c to MMP2/9 found in atherosclerotic lesions, we examined the distribution of the [^123I]10c in 8–10 week old female ApoE-/- mice (n = 5, Charles River) that were fed a high fat Western diet (15% fat, 0.25% cholesterol; Arie Blok Diervoeding, Netherlands) for 4 weeks. These animals subsequently developed atherosclerotic plaques. 40 MBq of [^123I]10c were administered by intravenous injection in the tail vein and allowed to circulate for […]. Animals were euthanized by bleeding via PBS infusion. The aortic arch was excised and 10 μm serial sections were made. Aortic arch sections were placed on a phosphor imaging plate (Fuji) and the amount of radioactivity was measured using a storage phosphor imaging apparatus (Typhoon Trio; GE Healthcare Life Sciences). Sections were then stained with hematoxylin/eosin staining, or used for MMP2 and MMP9 detection. Prior to incubation with monoclonal goat-anti-mouse MMP2 (R&D Systems) and rabbit-anti-mouse MMP9 (Abcam), the sections were heated to improve antigen retrieval. Rabbit-anti-goat secondary antibodies (DAKO) were utilized on the MMP2 sections. Thereafter, all sections were probed with the PowerVision anti-rabbit polymer, conjugated to horseradish peroxidase (Immunologic), to reveal positive primary antibody binding by means of chromogen conversion of 3,3’-diaminobenzidine (DAB), followed by nuclear counterstaining with hematoxylin. Histological sections were imaged with a bright-field microscope. […]
To validate the efficacy of [^123I]10c as an appropriate tracer for detection of atherosclerotic plaques, we examined the in vivo uptake of this ligand in ApoE-/- mice that were fed a high-fat diet. […] 40 MBq of [^123I]10c was administered intravenously and allowed to circulate for 3 hours, after which the animals were euthanized and the aortic arch was excised for measuring radioactivity by storage phosphor imaging.
Fig 6 Binding of [^123I]10c to atherosclerotic lesions containing MMP2 and MMP9. […] The region with highest apparent radioactivity has been outlined. […]

[2] = In vivo biodistribution after intravenous injection in healthy mice; settings: healthy C57BL/6 mice
Method: All experiments were approved by the institutional committee for animal experiments at the Academic Medical Center. C57BL/6 female mice (14–16 week) were purchased from Harlan and housed in the animal care facility at the Academic Medical Center. Animals were anesthetized using 126 mg ketamine, 100 μg dexdomitor, 500 μg atropine, 7.5 mL NaCl 0.9% of which 0.015 mL/g body weight was administered by intraperitoneal injection. In order to investigate the in vivo biodistribution of MMP ligand [^123I]10c, 4 MBq was administered intravenously in the tail vein and allowed to circulate for either 5, 15, 30, 60 minutes or 2, 3, 4, 6 and 24 hours (n = 3–4 animals for each time point). At the end of each circulation time, animals were sacrificed by bleeding through phosphate buffered saline solution (PBS) perfusion. After the animals were sacrificed, whole blood was collected by cardiac puncture, and selected organs were excised (heart, lungs, liver and kidneys). The organs were weighed and radioactivity was measured using a scintillation counter (TRT-CARB 2000CA, Perkin Elmer 1987). The measured radioactivity was expressed as the percentage of the injected dose per gram of tissue per gram of body weight (% ID/g/g).
The biodistribution of [^123I]10c was investigated following intravenous infusion of 4 MBq in healthy C57BL/6 mice. Following the bolus injection, the compound was allowed to circulate for 5, 15, 30, 60 minutes, 2, 3, 4, 6 and 24 hours. […] In the blood, stabilization of the compound was reached after at least 1 hour of circulation.
Fig 5 Biodistribution of [^123I]10c following intravenous infusion in healthy mice (n = 3–4 /group). Injected dose (ID) of radioactivity was measured in fat (A), muscle (B), liver (C), kidney (D), spleen (E), blood (F), heart (G) and lung (H) at varying time-points after injection. Values shown are mean ± SEM.

O=C(O)CN(CC(=O)NO)S(=O)(=O)c1ccc(Cl)cc1 [Compound 4e, 2-(4-chloro-N-(2-hydroxyamino)-2-oxoethyl)phenylsufonamido acetic acid]
IC50 (MMP1): 61 ± 0.11 nM
IC50 (MMP9): 18 ± 0.16 nM
Selectivity MMP1/MMP9 (MMP9): 3.39
IC50 (MMP2): 41 ± 0.19 nM
Selectivity MMP1/MMP2 (MMP2): 1.49

O=C(O)CN(CC(=O)NO)S(=O)(=O)c1ccc(Oc2ccc(I)cc2)cc1 [Compound 10c, ([4-(4-Iodo-phenoxy)-benzenesulphonyl]-hydroxycarbamoylmethyl-amino) acetic acid]
IC50 (MMP1): 910 ± 560 nM
IC50 (MMP9): 1.95 ± 1.1 nM
Selectivity MMP1/MMP9 (MMP9): 467
IC50 (MMP2): 0.87 ± 0.4 nM
Selectivity MMP1/MMP2 (MMP2): 1.05 x 10^3

O=C(O)CN(CC(=O)NO)S(=O)(=O)c1ccc(Oc2ccc(Br)cc2)cc1 [Compound 10d, ([4-(4-Bromo-phenoxy)-benzenesulphonyl]-hydroxycarbamoylmethyl-amino) acetic acid]
IC50 (MMP1): 1320 ± 790 nM
IC50 (MMP9): 1.61 ± 1.41 nM
Selectivity MMP1/MMP9 (MMP9): 820
IC50 (MMP2): 7.64 ± 1.43 nM
Selectivity MMP1/MMP2 (MMP2): 173

O=C(O)CN(CC(=O)NO)S(=O)(=O)c1ccc(Oc2ccc(F)cc2)cc1 [Compound 10b]
Selectivity MMP1/MMP9 (MMP9): 1.74 x 10^4
Selectivity MMP1/MMP2 (MMP2): 3.60 x 10^4

O=C(O)CN(CC(=O)NO)S(=O)(=O)c1ccccc1 [Compound 4a, 2-(N-(2(hydroxyamino)-2-oxoethyl)phenylsulfonamido) acetic acid]
IC50 (MMP1): 51 ± 0.1 nM
IC50 (MMP9): 14 ± 1.05 nM
Selectivity MMP1/MMP9 (MMP9): 3.64
IC50 (MMP2): 39 ± 0.16 nM
Selectivity MMP1/MMP2 (MMP2): 1.31

O=C(O)CN(CC(=O)NO)S(=O)(=O)c1ccc(Br)cc1 [Compound 4d, 2-(4-bromo-N-(2-hydroxyamino)-2-oxoethyl) phenylsufonamido acetic acid]
IC50 (MMP1): 63 ± 0.13 nM
IC50 (MMP9): 23 ± 0.21 nM
Selectivity MMP1/MMP9 (MMP9): 2.74
IC50 (MMP2): 19 ± 0.19 nM
Selectivity MMP1/MMP2 (MMP2): 3.32

O=C(O)CN(CC(=O)NO)S(=O)(=O)c1ccc(I)cc1 [Compound 4c, 2-(4-Iodo-N-(2-hydroxyamino)-2-oxoethyl) phenylsufonamido acetic acid]
IC50 (MMP1): 59 ± 0.17 nM
IC50 (MMP9): 11 ± 1.14 nM
Selectivity MMP1/MMP9 (MMP9): 5.36
IC50 (MMP2): 27 ± 1 nM
Selectivity MMP1/MMP2 (MMP2): 2.19

O=C(O)CN(CC(=O)NO)S(=O)(=O)c1ccc(Oc2ccc([123I])cc2)cc1 [[^123I]10c, ([4-(4-[^123I]Iodophenoxy)benzenesulphonyl]hydroxycarbamoylmethylamino) acetic acid]
tracer uptake in diseased regions of the vessel wall ([1]; ApoE-/- mice on high-fat diet, storage phosphor imaging): relatively high
uptake in atherosclerotic lesions of the aortic arch ([1]; ApoE-/- mice on high-fat diet, storage phosphor imaging of excised aortic arch): detectable
relation of tracer uptake to MMP2 and MMP9 immunohistochemical staining in lesions ([1]; ApoE-/- mice, consecutive aortic arch sections): co-localizing
circulation time until stabilization of the compound in blood ([2]; 4 MBq i.v. bolus): at least 1 hour
tissues with highest radioactivity (biodistribution) ([2]; 4 MBq i.v., 5 min to 24 h): highest in the liver and blood
accumulation in fat (biodistribution) ([2]; 4 MBq i.v., 5 min to 24 h, relative to other tissues): lowest

O=C(O)CN(CC(=O)NO)S(=O)(=O)c1ccc(F)cc1 [Compound 4b, 2-(4-fluoro-N-(2-hydroxyamino)-2oxoethyl)phenylsufonamido acetic acid]
IC50 (MMP1): 75 ± 0.15 nM
IC50 (MMP9): 21 ± 0.19 nM
Selectivity MMP1/MMP9 (MMP9): 3.57
IC50 (MMP2): 12 ± 0.17 nM
Selectivity MMP1/MMP2 (MMP2): 6.25

O=C(O)CN(CC(=O)NO)S(=O)(=O)c1ccc(Oc2ccccc2)cc1 [Compound 10a, ([4-Phenoxy-benzenesulphonyl]-hydroxycarbamoylmethyl-amino) acetic acid]
Selectivity MMP1/MMP9 (MMP9): 387
Selectivity MMP1/MMP2 (MMP2): 884
